Measured values reported in patent US20260242410A1, “CRYSTALLINE FORMS OF A NEUROACTIVE STEROID” (Sage Therapeutics, Inc., priority 2022, published 2026).

Assay: Stability of the crystalline solvate form on drying, followed by XRPD
Assay type: physicochemical
Protocol: XRPD analyses were performed using a PANalytical X′pert pro with PIXcel detector (128 channels), scanning the samples between 3 and 35° 20. Solid Compound (1) was gently ground to release any agglomerates and loaded onto a multi-well plate with a Mylar polymer film to support the sample. The multi-well plate was then placed into the diffractometer and analyzed using Cu K radiation (a1 λ=1.54060 Å; a2=1.54443 Å; β=1.39225 Å; a1: a2 ratio=0.5) running in transmission mode (step size 0.0130° 20, step time 18.87s) using 40 kV/40 mA generator settings. Data were visualized and images generated using the HighScore Plus 4.7 desktop application (PANalytical, 2017). The 20 position was calibrated using alumina powder reference standard on a monthly basis.
100 mg of anhydrous Compound (1) was temperature cycled in 600 μL of acetone for 24 hours. Accordingly, 600 μL of acetone was added in 200 μL aliquots to a vile containing 100 mg of anhydrous Compound (1), to form a movable slurry. The vile was then capped, wrapped in parafilm and temperature cycled in an incubator shaker between ambient temperature and 40° C. with a 4 hour hold at each temperature. After 24 hours, the solid Compound (1) Acetone Solvate Form was isolated by centrifugation.
Approximately 200 mg of anhydrous Compound (1) was weighed into a scintillation vial and 1 mL of DMSO added to form a slurry. The slurry was then temperature cycled between ambient temperature and 40° C. in 4 hour cycles for 48 hours. After this time, the sample was dried in a 40° C. oven. On removal from the oven, the sample remained wet, so the sample was isolated by centrifuge filtration and then dried under vacuum at ambient conditions over night. After drying, the sample was reanalyzed by XRPD to be Compound (1) DMSO Solvate Form.
FIG. 4 depicts a non-normalized X-ray powder diffraction pattern for Compound (1) DMSO Solvate Form. The XRPD pattern was stable on drying under vacuum.

| Compound | Crystallinity / XRPD pattern after gentle drying (72 hours gentle drying at ambient temperature (no vacuum), repreparation by temperature cycling) | Solid form obtained after complete drying (complete drying of the product) | Crystallinity / XRPD pattern after gentle drying (drying at 40° C. for 24 hours) | XRPD pattern stability on drying (drying under vacuum) |
| --- | --- | --- | --- | --- |
| COC[C@@]1(O)CC[C@H]2[C@@H](CC[C@@H]3[C@@H]2CC[C@]2(C)[C@@H](C(=O)Cn4nnc(C)n4)CC[C@@H]32)C1 [Compound (1) Acetone Solvate Form] | the XRPD pattern had not changed, there was a significant drop in crystallinity | produces crystalline anhydrous Compound (1) | significant loss in crystallinity, but negligible change in the XRPD pattern |  |
| COC[C@@]1(O)CC[C@H]2[C@@H](CC[C@@H]3[C@@H]2CC[C@]2(C)[C@@H](C(=O)Cn4nnc(C)n4)CC[C@@H]32)C1 [Compound (1) DMSO Solvate Form] |  |  |  | stable |
